Literature values in patent publication US10933035B2, “Antimicrobial silicone-based wound dressings” (Covalon Technologies Inc., priority 2010, dated 2021).

Conditions: 20° C.

Solubility in water: 0.008 % wt/vol
SMILES: [H]/N=C(\N/C(=N/[H])NCCCCCCNC(=N)NC(=N)Nc1ccc(Cl)cc1)Nc1ccc(Cl)cc1 [Chlorhexidine]
